Results published in US20260007133A1, “HERBICIDAL COMPOSITION COMPRISING AZINE COMPOUNDS” (BASF SE, priority 2022, published 2026).
Read-outs that look alike come from different tables or passages of the source.

What was measured:
Assay type in all cases: in vivo
Brachiaria decumbens = test: Greenhouse pre-emergence (PRE) herbicidal test on BRADC; conditions: Urochloa decumbens, PRE, BRADC, use rate 1 gai/ha
Excerpt: (§1) The culture containers used were plastic pots containing loamy sand with approximately 3.0% of humus as substrate. The seeds of the test plants were sown separately for each species.
(§2) For the pre-emergence treatment, the active compounds, suspended or emulsified in water, were applied directly after sowing by means of finely distributing nozzles. The containers were irrigated gently to promote germination and growth and subsequently covered with transparent plastic hoods until the plants had rooted. This cover caused uniform germination of the test plants unless this was adversely affected by the active compounds.
(§3) Depending on the species, the plants were kept at 10-25° C. and 20-35° C., respectively.
(§4) The test period extended over 2 to 4 weeks. During this time, the plants were tended and their response to the individual treatments was evaluated.
(§5) Evaluation was carried out using a scale from 0 to 100. 100 means no emergence of the plants, or complete destruction of at least the above-ground parts, and 0 means no damage or normal course of growth. A good herbicidal activity is given at values of at least 70, and very good herbicidal activity is given at values of at least 85.
(§6) If not stated differently, the respective components A and B, and if appropriate, C were formulated as a 5% by weight strength emulsion concentrate and, with addition of the amount of solvent system, introduced into the spray liquor used for applying the active compound.
(§7) As indicated application was either post emergent (POST) at the respective growth stage (GS) of the weed (BBCH code), or pre-emergent (PRE).
(§8) Assessment was 20 days after treatment (DAT).

Commelina benghalensis = test: Greenhouse pre-emergence (PRE) herbicidal test on COMBE; conditions: Commelina benghalensis, pre-emergence
Summary of the method: (§9)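 Scoring ran from 0 (normal growth) to 100 (no emergence or above-ground parts fully destroyed) and was done 20 DAT. Application was pre-emergent in pots of loamy sand (~3.0% humus) sown per species. Plants grew at 10-25° C or 20-35° C by species.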

Galium aparine = test: Greenhouse pre-emergence (PRE) herbicidal test on GALAP; conditions: Galium aparine, pre-emergence; PRE; GALAP; use rate 1 gai/ha
Excerpt: as §1, §2, §3, §4, §5, §6, §7, §8

Geranium pusillum = test: Greenhouse pre-emergence (PRE) herbicidal test on GERPU; conditions: Geranium pusillum, pre-emergence; for inhibition at 4 g/ha: use rate 4 gai/ha
Excerpt: as §1, §2, §3, §4, §5, §6, §7, §8

Lolium multiflorum = test: Greenhouse pre-emergence (PRE) herbicidal test on LOLMU; conditions: Lolium multiflorum, pre-emergence; for inhibition at 1 g/ha: use rate 1 gai/ha; for inhibition at 2 g/ha: use rate 2 gai/ha; for inhibition at 8 g/ha: use rate 8 gai/ha
Summary of the method: as §9

Setaria viridis = test: Greenhouse pre-emergence (PRE) herbicidal test on SETVI; conditions: Setaria viridis, pre-emergence; for inhibition at 2 g/ha: use rate 2 gai/ha
Summary of the method: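 Visual rating on a 0 (normal growth) to 100 (no emergence or above-ground kill) scale at 20 DAT. Treatment was pre-emergence spray of aqueous suspension/emulsion right after sowing into loamy sand with ~3.0% humus; covered until rooted, grown at 10-25° C or 20-35° C depending on species.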

Abutilon theophrasti = test: Greenhouse post-emergence (POST) herbicidal test on ABUTH; conditions: Abutilon theophrasti, post-emergence, POST, ABUTH; for inhibition at 2 g/ha: use rate 2 gai/ha
Summary of the method: (§10)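 Visual damage rating on a 0–100 scale, 0 meaning normal growth and 100 complete kill of above-ground parts, taken 20 days after treatment. Spray applied post-emergence to plants 3–15 cm tall in loamy sand with approximately 3.0% humus.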

Amaranthus retroflexus [1] = test: Greenhouse post-emergence (POST) herbicidal test on AMARE; conditions: Amaranthus retroflexus, post-emergence, POST, AMARE
Summary of the method: as §10

Digitaria sanguinalis = test: Greenhouse post-emergence (POST) herbicidal test on DIGSA; conditions: for inhibition at 2 g/ha / inhibition at 4 g/ha / inhibition at 1 g/ha / inhibition at 8 g/ha: Digitaria sanguinalis, post-emergence; for inhibition at 2 g/ha: use rate 2 gai/ha; for inhibition at 4 g/ha: use rate 4 gai/ha; for inhibition at 1 g/ha: use rate 1 gai/ha
Summary of the method: as §10

Echinochloa crus-galli = test: Greenhouse post-emergence (POST) herbicidal test on ECHCG; conditions: Echinochloa crus-galli, post-emergence; for inhibition at 1 g/ha: use rate 1 gai/ha; for inhibition at 2 g/ha: use rate 2 gai/ha
Summary of the method: as §10

Euphorbia heterophylla = test: Greenhouse post-emergence (POST) herbicidal test on EPHHL; conditions: Euphorbia heterophylla, post-emergence, POST, EPHHL; for inhibition at 2 g/ha: use rate 2 gai/ha
Summary of the method: as §10

Amaranthus retroflexus [2] = test: Greenhouse pre-emergence (PRE) herbicidal test on AMARE; conditions: Amaranthus retroflexus, pre-emergence; AMARE PRE, use rate 2 gai/ha; read-out: % activity
Summary of the method: as §9

Ipomoea hederacea = test: Greenhouse post-emergence (POST) herbicidal test on IPOHE; conditions: Ipomoea hederacea, post-emergence
Summary of the method: as §10

[3] = 480 h, 20 DAT, read-out: % activity
[4] = 480 h, use rate 4 gai/ha, 20 DAT
[5] = DIGSA POST, read-out: % activity
[6] = POST, DIGSA, read-out: % activity
[7] = POST, ECHCG, read-out: % activity
[8] = 480 h, PRE, LOLMU, 20 DAT, read-out: solo application % activity
[9] = 480 h, 20 DAT, read-out: solo application % activity
[10] = 480 h, use rate 8 gai/ha, 20 DAT, read-out: solo application % activity

Q: What does the source list for COc1c(F)cc(F)c(F)c1Nc1nc(N)nc(C(C)(C)F)n1 [Compound I-1]?
A: inhibition at 1 g/ha (Brachiaria decumbens): 0%; inhibition at 1 g/ha (Commelina benghalensis; COMBE PRE, use rate 1 gai/ha): 35%; inhibition at 4 g/ha (Commelina benghalensis; COMBE PRE, use rate 4 gai/ha): 0%; inhibition at 1 g/ha (Galium aparine): 0%; inhibition at 4 g/ha (Geranium pusillum; 480 h, PRE, GERPU, 20 DAT): 50%; inhibition at 1 g/ha (Geranium pusillum; GERPU PRE, use rate 1 gai/ha): 0%; inhibition at 4 g/ha (Geranium pusillum; GERPU PRE): 20%; inhibition at 4 g/ha (Geranium pusillum; PRE, GERPU): 10%; inhibition at 1 g/ha (Lolium multiflorum; 480 h, PRE, LOLMU, 20 DAT): 40%; inhibition at 2 g/ha (Lolium multiflorum; 480 h, PRE, LOLMU, 20 DAT, read-out: % activity): 50%; inhibition at 1 g/ha (Lolium multiflorum; LOLMU PRE): 20%; inhibition at 4 g/ha (Lolium multiflorum; LOLMU PRE, use rate 4 gai/ha): 85%; inhibition at 1 g/ha (Lolium multiflorum; PRE, LOLMU): 35%; inhibition at 2 g/ha (Setaria viridis; 480 h, PRE, SETVI, 20 DAT, read-out: % activity): 20%; inhibition at 2 g/ha (Abutilon theophrasti; [3]): 30%; inhibition at 4 g/ha (Abutilon theophrasti; [4]): 50%; inhibition at 1 g/ha (Abutilon theophrasti; use rate 1 gai/ha): 10%; inhibition at 2 g/ha (Abutilon theophrasti; read-out: % activity): 10%; inhibition at 1 g/ha (Amaranthus retroflexus [1]; use rate 1 gai/ha): 50%; inhibition at 2 g/ha (Digitaria sanguinalis; 480 h, POST, DIGSA, 20 DAT, read-out: % activity): 0%; inhibition at 4 g/ha (Digitaria sanguinalis; 480 h, POST, DIGSA, 20 DAT): 30%; inhibition at 1 g/ha (Digitaria sanguinalis; [5]): 5%; inhibition at 4 g/ha (Digitaria sanguinalis; DIGSA POST): 25%; inhibition at 1 g/ha (Digitaria sanguinalis; [6]): 0%; inhibition at 2 g/ha (Digitaria sanguinalis; [6]): 10%; inhibition at 4 g/ha (Echinochloa crus-galli; 480 h, POST, ECHCG, use rate 4 gai/ha, 20 DAT): 0%; inhibition at 1 g/ha (Echinochloa crus-galli; ECHCG POST, read-out: % activity): 30%; inhibition at 1 g/ha (Echinochloa crus-galli; [7]): 10%; inhibition at 2 g/ha (Echinochloa crus-galli; [7]): 10%; inhibition at 2 g/ha (Euphorbia heterophylla; [3]): 50%; inhibition at 4 g/ha (Euphorbia heterophylla; [4]): 60%; inhibition at 2 g/ha (Euphorbia heterophylla; read-out: % activity): 40%

Q: What does the source list for COc1c(Cl)c(F)c(F)c(F)c1Nc1nc(N)nc(C(C)(C)F)n1 [Compound I-4, N4-(5-Chloro-2,3,4-trifluoro-6-methoxy-phenyl)-6-(1-fluoro-1-methyl-ethyl)-1,3,5-triazine-2,4-diamine]?
A: inhibition at 2 g/ha (Amaranthus retroflexus [2]): 70%; pest or weed control at 2 g/ha (Commelina benghalensis; 480 h, PRE, COMBE, I-4 solo 2 gai/ha, 20 DAT, read-out: % activity): 10%; inhibition at 8 g/ha (Commelina benghalensis; 480 h, PRE, COMBE, use rate 8 gai/ha, 20 DAT, read-out: solo application % activity): 10%; inhibition at 2 g/ha (Geranium pusillum; 480 h, PRE, use rate 2 gai/ha, 20 DAT): 10%; pest or weed control at 2 g/ha (Lolium multiflorum; 480 h, PRE, LOLMU, I-4 solo 2 gai/ha, 20 DAT, read-out: % activity): 10%; pest or weed control at 8 g/ha (Lolium multiflorum; 480 h, PRE, LOLMU, I-4 solo 8 gai/ha, 20 DAT): 65%; inhibition at 2 g/ha (Lolium multiflorum; [8]): 5%; inhibition at 8 g/ha (Lolium multiflorum; [8]): 60%; inhibition at 8 g/ha (Lolium multiflorum; LOLMU PRE, read-out: % activity): 35%; pest or weed control at 8 g/ha (Setaria viridis; 480 h, PRE, SETVI, I-4 solo 8 gai/ha, 20 DAT): 80%; inhibition at 2 g/ha (Setaria viridis; 480 h, PRE, SETVI, 20 DAT, read-out: solo application % activity): 5%; inhibition at 8 g/ha (Setaria viridis; 480 h, PRE, SETVI, use rate 8 gai/ha, 20 DAT, read-out: solo application % activity): 75%; inhibition at 2 g/ha (Setaria viridis; SETVI PRE, read-out: % activity): 50%; pest or weed control at 2 g/ha (Abutilon theophrasti; 480 h, I-4 solo 2 gai/ha, 20 DAT): 20%; inhibition at 2 g/ha (Abutilon theophrasti; [9]): 10%; inhibition at 8 g/ha (Abutilon theophrasti; [10]): 10%; inhibition at 2 g/ha (Amaranthus retroflexus [1]; 480 h, use rate 2 gai/ha, 20 DAT, read-out: solo application % activity): 80%; inhibition at 8 g/ha (Amaranthus retroflexus [1]; [10]): 75%; % activity (Digitaria sanguinalis; DIGSA POST, use rate 8 gai/ha): 35%; inhibition at 2 g/ha (Digitaria sanguinalis; 480 h, POST, DIGSA, 20 DAT, read-out: solo application % activity): 0%; inhibition at 8 g/ha (Digitaria sanguinalis; 480 h, POST, DIGSA, use rate 8 gai/ha, 20 DAT, read-out: solo application % activity): 0%; inhibition at 2 g/ha (Digitaria sanguinalis; [5]): 10%; inhibition at 8 g/ha (Digitaria sanguinalis; DIGSA POST, use rate 8 gai/ha, read-out: % activity): 25%; inhibition at 2 g/ha (Echinochloa crus-galli; 480 h, POST, ECHCG, 20 DAT, read-out: solo application % activity): 0%; inhibition at 8 g/ha (Echinochloa crus-galli; 480 h, POST, ECHCG, use rate 8 gai/ha, 20 DAT, read-out: solo application % activity): 5%; inhibition at 2 g/ha (Euphorbia heterophylla; [9]): 30%; inhibition at 8 g/ha (Euphorbia heterophylla; [10]): 35%; inhibition at 8 g/ha (Ipomoea hederacea; 480 h, POST, IPOHE, use rate 8 gai/ha, 20 DAT, read-out: solo application % activity): 80%; inhibition at 2 g/ha (Ipomoea hederacea; IPOHE POST, use rate 2 gai/ha, read-out: % activity): 40%
